Reference: US20230355500A1, “TOPICAL COMPOSITION” (LILIGER LTD, priority 2021, published 2023)

Experiments:
[1] = system: stratum corneum; conditions: patients with atopic dermatitis, topical treatment; cited from earlier work
[2] = system: skin; test: Concentration needed for skin effect, judged by redness, swelling, tingling and burning sensation; assay type: in vivo, human
Experimental: The concentration of the NO-donor in the topical composition of the present invention is determined by the amount that is sufficient to elevate the level of NO in the skin, upon topical application of the composition. Since measuring NO levels in humans is impractical, such elevation can be observed by the appearance of skin redness (erythema), swelling (oedema) a tingling sensation and a burning sensation, which is intensified as the concentration goes up. Furthermore, the occurrence of elevated NO can be noticed by its desirable cosmetic outcomes such as enhanced radiance and reduction of wrinkles.
For example, in the case of nitroglycerine, 2% is insufficient. At higher concentrations, from about 4%, a slight burning sensation is noticed. This sensation intensifies as the nitroglycerine concentration increases. Thus, in certain embodiments, the concentration of nitroglycerine as NO-donor is between about 4% - about 12%; and in other embodiments it can be from about 4%-8%, or from about 8%-12%.
In the case of arginine, 5% is insufficient. At higher concentrations, from about 6%, a slight burning sensation is noticed, and it is associated with a tingling sensation. This sensation intensifies as the arginine concentration increases. Thus, in certain embodiments, the concentration of arginine as NO-donor is at least about 6%. For example, between about 6% and about 25%. In other embodiments, the concentration of arginine can be from about 6% to about 8%, or from about 8% to about 10%, or from about 10% to about 14%, or from about 14% to about 18%, or from about 18% to about 25%, or from about 8% to about 25%, or from about 6% to about 12%, or from about 8% to about 12%, or from about 8% to about 10%.
The concentration of the counter-NO agent is determined so that the skin redness (erythema), swelling (oedema) and burning sensation, induced by the NO-donor is decreased or eliminated. For example, in certain cases, where the counter-NO agent is nicotinamide, 0.5% is insufficient. […]

[3] = system: ageing skin; test: Treatment of ageing skin, study #2: day cream used for 28 days, unguided free-form feedback; assay type: in vivo, human; conditions: addition of nicotinamide to the arginine cream
Description: Objectives: To determine the impact of Composition #1 on middle-aged women after 28 days of continuous use. […] They were asked to use the cream daily for 28 days and to provide unguided input (free form) Results: 13 of the 20 women provided feedback that was summarized in the table below.

Structure (SMILES): Cl.N=C(N)NCCC[C@H](N)C(=O)O [arginine hydrochloride]
- Clinical symptoms of dry skin [1]: improvement
- Skin moisture [1]: increase
- Urea in the stratum corneum [1]: significantly increase

Structure (SMILES): N=C(N)NCCC[C@H](N)C(=O)O [arginine, L-arginine]
- Sufficiency of the concentration as NO-donor ([2]; 5% in the topical composition): insufficient
- Concentration from which a slight burning sensation is noticed ([2]; human, in vivo): at least 6%

Structure (SMILES): NC(=O)c1cccnc1 [nicotinamide]
- Previous issues (Study #1) of burning sensation and over-tingling [3]: solved
- Sufficiency of the concentration as counter-NO agent (to decrease redness, swelling and burning sensation) ([2]; 0.5% in the topical composition, in certain cases): insufficient
